Consider 26 compounds from ChEMBL document CHEMBL1148459, “1-alkyl-4-acylpiperazines as a new class of imidazole-free histamine H(3) receptor antagonists” (J Med Chem, 2004).

As a reminder, the Ki is a dissociation constant, usually derived from enzyme kinetics or from competition with a known ligand. The low end stands for tighter binding, the high end for weaker binding.

For this experiment, the target named is Histamine H3 receptor (Homo sapiens, UniProt Q9Y5N1). As to the kind of experiment: Antagonist potency against human histamine H3 receptor expressed in CHO cells was determined by GTPgamma-S-assay. It counts as functional, cell-based.
Sequence of Histamine H3 receptor (Q9Y5N1 whole entry): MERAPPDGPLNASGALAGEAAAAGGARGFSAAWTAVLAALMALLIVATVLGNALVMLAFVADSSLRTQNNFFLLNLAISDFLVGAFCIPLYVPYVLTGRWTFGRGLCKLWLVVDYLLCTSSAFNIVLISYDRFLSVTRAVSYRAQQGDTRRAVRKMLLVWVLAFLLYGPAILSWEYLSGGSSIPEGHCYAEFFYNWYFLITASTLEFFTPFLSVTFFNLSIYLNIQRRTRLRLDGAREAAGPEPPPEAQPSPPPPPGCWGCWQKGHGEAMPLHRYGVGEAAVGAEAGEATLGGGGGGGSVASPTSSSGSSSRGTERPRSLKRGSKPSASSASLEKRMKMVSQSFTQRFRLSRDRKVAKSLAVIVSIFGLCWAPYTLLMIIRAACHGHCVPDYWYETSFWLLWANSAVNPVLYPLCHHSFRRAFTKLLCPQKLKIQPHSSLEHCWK
For `CC(C)N1CCN(C(=O)CCC(=O)c2ccc(Cl)cc2)CC1`, the Ki amounted to 4.4 nM.
Next, `CCC(CC)N1CCN(C(=O)CCOc2ccc(Cl)cc2)CC1`: 1.2 nM; `CCC(CC)N1CCN(C(=O)CCC(=O)c2ccc(F)cc2)CC1`: 1.5 nM.
In turn, `CCC(CC)N1CCN(C(=O)Cc2ccc(OC(F)(F)F)cc2)CC1` registered a Ki of 2.6 nM.
The compound `CCC(CC)N1CCN(C(=O)Cc2ccc(-c3ccccc3)cc2)CC1` returned a Ki of 2.9 nM.
In turn, `CCC(CC)N1CCN(C(=O)Cc2ccc(C(C)=O)cc2)CC1` displayed a Ki of 24 nM.
Under `CCC(CC)N1CCN(C(=O)CCC(=O)c2ccc(OC)c(F)c2)CC1` stands 0.43 nM; under `CCC(CC)N1CCN(C(=O)CCc2ccc(C(F)(F)F)cc2)CC1`, 8.5 nM.
Next, `CCCC(CCC)N1CCN(C(=O)CCC(=O)c2ccc(Cl)cc2)CC1`: 480 nM; `O=C(CCC(=O)N1CCN(C2CCCCCCC2)CC1)c1ccc(Cl)cc1`: 450 nM; `O=C(CCC(=O)N1CCN(C2CCC2)CC1)c1ccc(Cl)cc1`: 1.2 nM.
Under `O=C(CCC(=O)N1CCN(C2CCCCCC2)CC1)c1ccc(Cl)cc1` stands 34 nM; under `CCC(CC)N1CCN(C(=O)CCC(=O)c2ccc(C(F)(F)F)cc2)CC1`, 1.4 nM.
Take `O=C(CCC(=O)N1CCN(C2CC2)CC1)c1ccc(Cl)cc1`: the Ki was 13.3 nM.
In turn, `O=C(CCC(=O)N1CCN(CC2CC2)CC1)c1ccc(Cl)cc1` showed a Ki of 8.3 nM.
The compound `CCC(CC)N1CCN(C(=O)Cc2ccc(C(F)(F)F)cc2)CC1` came in with a Ki of 2.3 nM.
Next, `CCC(CC)N1CCN(C(=O)c2ccc(OC(F)(F)F)cc2)CC1`: 93 nM; `CCC(CC)N1CCN(C(=O)Cc2ccc(N(C)C)cc2)CC1`: 0.96 nM; `CCC(CC)N1CCN(C(=O)CCC(=O)c2ccc(Cl)cc2)CC1`: 0.86 nM.
Under `CCC(CC)N1CCN(C(=O)CCOc2ccc(C#N)cc2)CC1` stands 0.74 nM.
Next, `CCC(CC)N1CCN(C(=O)COc2ccc(OC(F)(F)F)cc2)CC1`: 110 nM; `C#CC(C)(C)N1CCN(C(=O)CCC(=O)c2ccc(Cl)cc2)CC1`: 89 nM; `O=C(CCC(=O)N1CCN(C2CCOCC2)CC1)c1ccc(Cl)cc1`: 9.2 nM.
The compound `O=C(CCC(=O)N1CCN(C2CCCCC2)CC1)c1ccc(Cl)cc1` returned a Ki of 3.6 nM.
Under `CCC(CC)N1CCN(C(=O)CCC(=O)c2ccc(OC(F)(F)F)cc2)CC1` stands 2.7 nM; under `CCC(C)(C)N1CCN(C(=O)CCC(=O)c2ccc(Cl)cc2)CC1`, 0.54 nM.
